From ChEMBL document CHEMBL1149249 (J Med Chem, 2004) come the findings set out here.

The Ki is a dissociation constant, usually derived from enzyme kinetics or from competition with a known ligand. Higher therefore signals lower affinity.

One assay has as its target T1, Adenosine receptor A1 (Rattus norvegicus, UniProt P25099).
T1 sequence (P25099 whole entry): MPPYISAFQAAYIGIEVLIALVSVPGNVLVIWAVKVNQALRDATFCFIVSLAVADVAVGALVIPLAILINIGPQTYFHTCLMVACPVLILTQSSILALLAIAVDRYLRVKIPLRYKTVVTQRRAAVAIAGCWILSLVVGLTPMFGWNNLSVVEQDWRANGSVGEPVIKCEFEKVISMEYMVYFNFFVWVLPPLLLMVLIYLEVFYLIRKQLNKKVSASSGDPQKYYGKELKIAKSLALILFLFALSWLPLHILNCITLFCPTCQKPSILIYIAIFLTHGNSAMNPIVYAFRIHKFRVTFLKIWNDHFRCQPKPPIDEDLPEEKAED
The assay is described as follows: Displacement of [3h]DPCPX from adenosine A receptor in rat cerebral cortex membrane.

In another assay the target is Adenosine receptor A2a (Rattus norvegicus, UniProt P30543). The assay is described as follows: Displacement of [3H]ZM241385 from adenosine A2A receptor in rat brain membrane. It is filed as cell membranes.
Adenosine receptor A2a, sequence (P30543 whole entry): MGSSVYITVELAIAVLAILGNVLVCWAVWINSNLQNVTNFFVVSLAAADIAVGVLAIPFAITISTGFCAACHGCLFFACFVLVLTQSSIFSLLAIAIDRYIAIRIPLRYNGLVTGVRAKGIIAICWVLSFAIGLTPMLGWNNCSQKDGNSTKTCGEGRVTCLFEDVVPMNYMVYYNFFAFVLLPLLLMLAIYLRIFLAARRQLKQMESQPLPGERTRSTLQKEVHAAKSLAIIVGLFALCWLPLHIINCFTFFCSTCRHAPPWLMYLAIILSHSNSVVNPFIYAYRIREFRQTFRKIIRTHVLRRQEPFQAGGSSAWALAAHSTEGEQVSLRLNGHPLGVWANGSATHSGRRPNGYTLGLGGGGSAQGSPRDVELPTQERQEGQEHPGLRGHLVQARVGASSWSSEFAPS

As for `Nc1nc(N2CCN3CCC[C@H]3C2)cc2nc(-c3ccco3)nn12`, the inhibitory constant (Ki) was above 500 nM on Adenosine receptor A1 and 110 nM (antagonist) on Adenosine receptor A2a.

Consider `Nc1nc(N2CCN3C[C@H](CNc4ncccn4)CC[C@H]3C2)nc2nc(-c3ccco3)nn12`, for which the figures for the Ki at Adenosine receptor A1 and on Adenosine receptor A2a were above 1000 nM and 45 nM (antagonist), respectively.

Take `Nc1nc(N2CCN3C[C@@H](CN(Cc4ccco4)Cc4ccco4)CC[C@H]3C2)nc2nc(-c3ccco3)nn12`: the results for the Ki on Adenosine receptor A1 and on Adenosine receptor A2a were above 1000 nM and 47 nM (antagonist), respectively.

Regarding `Nc1nc(NC[C@@H]2CC[C@@H]3CN(Cc4ccc(F)cc4F)CCN3C2)cc2nc(-c3ccco3)nn12`, the values for the inhibition constant (Ki) at Adenosine receptor A1 and at Adenosine receptor A2a were above 1000 nM and 230 nM (antagonist), respectively.

For `Nc1nc(N2CCN3C[C@@H](CNCc4ccc(F)cc4F)CC[C@H]3C2)nc2nc(-c3ccco3)nn12`, the Ki on Adenosine receptor A1 was 1100 nM; at Adenosine receptor A2a it was 2 nM (antagonist).

In the case of `Nc1cc(N2CCN3CCC[C@H]3C2)nc2nc(-c3ccco3)nn12`, the inhibition constant Ki at Adenosine receptor A1 was above 500 nM; on Adenosine receptor A2a, 170 nM (antagonist).

With `Nc1nc(N2CCN3C[C@H](CN(Cc4cccnc4)Cc4cccnc4)CC[C@H]3C2)nc2nc(-c3ccco3)nn12`, the inhibition constant (Ki) at Adenosine receptor A1 was 7800 nM; on Adenosine receptor A2a, 4 nM (antagonist).

For the compound `Nc1nc(N2CCN3C[C@@H](CNc4ncccn4)CC[C@H]3C2)cc2nc(-c3ccco3)nn12`, the Ki on Adenosine receptor A1 was above 1000 nM; at Adenosine receptor A2a, 47 nM (antagonist).

For the compound `Nc1nc(N2CCN3C[C@H](COc4ccc5ccccc5n4)CC[C@H]3C2)nc2nc(-c3ccco3)nn12`, the results for the Ki at Adenosine receptor A1 and on Adenosine receptor A2a were above 1000 nM and 7 nM (antagonist), respectively.

As for `NC[C@@H]1CC[C@H]2CN(c3nc(N)n4nc(-c5ccco5)nc4n3)CCN2C1`, the results for the Ki on Adenosine receptor A1 and on Adenosine receptor A2a were 3500 nM and 2 nM (antagonist), respectively.

For `Nc1nc(N2CCN3C[C@@H](CN(Cc4ccc(F)cc4F)Cc4ccc(F)cc4F)CC[C@H]3C2)nc2nc(-c3ccco3)nn12`, the figures for the Ki on Adenosine receptor A1 and at Adenosine receptor A2a were above 1000 nM and above 500 nM, respectively.

For the compound `Nc1nc(N2C[C@@H]3CCCN3C[C@@H]2Cc2ccccc2)nc2nc(-c3ccco3)nn12`, the values for the Ki at Adenosine receptor A1 and on Adenosine receptor A2a were above 1000 nM and 490 nM (antagonist), respectively.

For `Nc1nc(N2CCN3C[C@@H](CN(Cc4ccccn4)Cc4ccccn4)CC[C@H]3C2)nc2nc(-c3ccco3)nn12`, the Ki is above 500 nM on Adenosine receptor A1 and 9 nM (antagonist) on Adenosine receptor A2a.

Consider `Nc1nc(N2CCN3C[C@@H](CN(Cc4cccnc4)Cc4cccnc4)CC[C@H]3C2)nc2nc(-c3ccco3)nn12`, for which the inhibitory constant (Ki) on Adenosine receptor A1 is above 1000 nM; at Adenosine receptor A2a it was 2 nM (antagonist).

For the compound `Cc1nn(C)c(Cl)c1CN(Cc1c(C)nn(C)c1Cl)C[C@H]1CC[C@H]2CN(c3nc(N)n4nc(-c5ccco5)nc4n3)CCN2C1`, the figures for the Ki on Adenosine receptor A1 and on Adenosine receptor A2a were above 1000 nM and 180 nM (antagonist), respectively.

As to `NC[C@@H]1CC[C@H]2CN(c3cc(N)n4nc(-c5ccco5)nc4n3)CCN2C1`, the Ki on Adenosine receptor A1 was above 500 nM; at Adenosine receptor A2a it was 370 nM (antagonist).

With `NC[C@H]1CC[C@H]2CN(c3cc(N)n4nc(-c5ccco5)nc4n3)CCN2C1`, the inhibition constant (Ki) is above 500 nM on Adenosine receptor A1 and 110 nM (antagonist) at Adenosine receptor A2a.

As for `Nc1nc(N2CCN3C[C@@H](CNCc4cccnc4)CC[C@H]3C2)nc2nc(-c3ccco3)nn12`, the inhibition constant Ki on Adenosine receptor A1 was above 500 nM; on Adenosine receptor A2a, 51 nM (antagonist).

For `Nc1nc(N2CCNCC2)nc2nc(-c3ccco3)nn12`, the inhibition constant Ki on Adenosine receptor A2a is above 5000 nM.

For the compound `Nc1nc(N2CCN3CCC[C@@H]3C2)cc2nc(-c3ccco3)nn12`, the Ki at Adenosine receptor A1 is 1100 nM; at Adenosine receptor A2a, 63 nM (antagonist).

On to `NC[C@H]1CC[C@H]2CN(c3cc4nc(-c5ccco5)nn4c(N)n3)CCN2C1`, for which the Ki is above 500 nM on Adenosine receptor A1 and 56 nM (antagonist) on Adenosine receptor A2a.

Regarding `Cc1nn(C)c(Cl)c1CNC[C@H]1CC[C@H]2CN(c3nc(N)n4nc(-c5ccco5)nc4n3)CCN2C1`, the inhibitory constant (Ki) at Adenosine receptor A1 is above 500 nM; on Adenosine receptor A2a it was 30 nM (antagonist).

As for `Nc1nc(N2CCN3C[C@H](COc4cccc(F)c4)CC[C@H]3C2)nc2nc(-c3ccco3)nn12` (mixture of isomers), the Ki is 960 nM (antagonist) on Adenosine receptor A1 and 53 nM (antagonist) at Adenosine receptor A2a.

Consider `Nc1cc(N2CCN3[C@@H](COc4ccc5[nH]ccc5c4)CCC[C@H]3C2)nc2nc(-c3ccco3)nn12` (racemic), for which the results for the Ki at Adenosine receptor A1 and on Adenosine receptor A2a were above 1000 nM and 76 nM (antagonist), respectively.

Take `Nc1nc(N2CCN3C[C@@H](Cn4cncn4)CC[C@H]3C2)nc2nc(-c3ccco3)nn12` (racemic): the inhibition constant (Ki) is above 500 nM on Adenosine receptor A1 and 4 nM (antagonist) at Adenosine receptor A2a.

As for `Nc1nc(N2CCN3C[C@@H](CN(Cc4ccncc4)Cc4ccncc4)CC[C@H]3C2)nc2nc(-c3ccco3)nn12` (racemic), the Ki was 6000 nM at Adenosine receptor A1 and 3 nM (antagonist) on Adenosine receptor A2a.

Consider `Nc1nc(N2CCN3C[C@H](COc4ccncc4)CC[C@H]3C2)nc2nc(-c3ccco3)nn12` (racemic), for which the Ki on Adenosine receptor A1 was above 1000 nM; on Adenosine receptor A2a, 81 nM (antagonist).

As to `Nc1cc(N2CCN3[C@@H](COc4ccc5cccnc5c4)CCC[C@H]3C2)nc2nc(-c3ccco3)nn12` (racemic), the Ki at Adenosine receptor A1 is above 500 nM; on Adenosine receptor A2a, 830 nM (antagonist).

`Nc1nc(N2CCN3C[C@@H](CNc4ncccn4)CC[C@H]3C2)nc2nc(-c3ccco3)nn12` (racemic): the figures for the Ki at Adenosine receptor A1 and at Adenosine receptor A2a were 1500 nM and 9 nM (antagonist), respectively.

With `Nc1nc(N2CCN3C[C@@H](Cn4cnnn4)CC[C@H]3C2)nc2nc(-c3ccco3)nn12` (racemic), the Ki at Adenosine receptor A1 is above 500 nM; on Adenosine receptor A2a it was 14 nM (antagonist).

For `Nc1nc(N2CCN3C[C@@H](COc4ccc(F)cc4F)CC[C@H]3C2)nc2nc(-c3ccco3)nn12` (racemic), the Ki at Adenosine receptor A1 was above 500 nM; at Adenosine receptor A2a, 70 nM (antagonist).

With `Nc1cc(N2CCN3[C@@H](COc4cccnc4)CCC[C@H]3C2)nc2nc(-c3ccco3)nn12` (racemic), the values for the inhibition constant Ki on Adenosine receptor A1 and at Adenosine receptor A2a were above 500 nM and 80 nM (antagonist), respectively.

Turning to `Nc1nc(N2CCN3C[C@@H](COc4cccc5cnccc45)CC[C@H]3C2)nc2nc(-c3ccco3)nn12` (racemic), the results for the inhibition constant (Ki) at Adenosine receptor A1 and on Adenosine receptor A2a were 3500 nM and 6 nM (antagonist), respectively.

On to `Nc1nc(N2CCN3C[C@H](COc4ncnc5ccccc45)CC[C@H]3C2)nc2nc(-c3ccco3)nn12` (racemic), for which the inhibitory constant (Ki) is above 1000 nM at Adenosine receptor A1 and 37 nM (antagonist) on Adenosine receptor A2a.

For the compound `Nc1nc(N2CCN3C[C@@H](COc4cc5ccccc5cn4)CC[C@H]3C2)nc2nc(-c3ccco3)nn12` (racemic), the Ki on Adenosine receptor A1 is above 1000 nM; on Adenosine receptor A2a it was 36 nM (antagonist).

As for `Nc1nc(N2CCN3C[C@H](COc4cccc5cnccc45)CC[C@H]3C2)nc2nc(-c3ccco3)nn12` (racemic), the Ki on Adenosine receptor A1 is 210 nM (antagonist); at Adenosine receptor A2a, 73 nM (antagonist).

As for `Nc1nc(N2CCN3C[C@@H](COc4ncnc5ccccc45)CC[C@H]3C2)nc2nc(-c3ccco3)nn12` (racemic), the inhibitory constant (Ki) is above 500 nM on Adenosine receptor A1 and 19 nM (antagonist) on Adenosine receptor A2a.

In the case of `Nc1nc(N2CCN3C[C@H](COc4cc5ccccc5cn4)CC[C@H]3C2)nc2nc(-c3ccco3)nn12` (racemic), the Ki on Adenosine receptor A1 was 710 nM (antagonist); at Adenosine receptor A2a, 130 nM (antagonist).

`Nc1nc(N2CCN3C[C@@H](COc4cccnc4)CC[C@H]3C2)nc2nc(-c3ccco3)nn12` (racemic): the values for the Ki at Adenosine receptor A1 and at Adenosine receptor A2a were 1400 nM and 0.3 nM (antagonist), respectively.

On to `Nc1nc(NC[C@@H]2CC[C@@H]3CN(Cc4ccc(F)cc4F)CCN3C2)nc2nc(-c3ccco3)nn12` (racemic), for which the inhibition constant (Ki) was above 500 nM on Adenosine receptor A1 and 130 nM (antagonist) on Adenosine receptor A2a.

Regarding `Nc1nc(NC[C@H]2CC[C@@H]3CN(c4ncccn4)CCN3C2)nc2nc(-c3ccco3)nn12` (racemic), the inhibition constant (Ki) at Adenosine receptor A1 was above 1000 nM; at Adenosine receptor A2a, 230 nM (antagonist).

For `Cn1nc(C(F)(F)F)c(CN2CCN3C[C@@H](CNc4nc(N)n5nc(-c6ccco6)nc5n4)CC[C@@H]3C2)c1Cl` (racemic), the values for the inhibitory constant (Ki) on Adenosine receptor A1 and at Adenosine receptor A2a were above 1000 nM and above 500 nM, respectively.

With `COC(=O)c1nc(Cl)c(N2CCN3C[C@H](CNc4nc(N)n5nc(-c6ccco6)nc5n4)CC[C@@H]3C2)nc1N` (racemic), the results for the Ki on Adenosine receptor A1 and at Adenosine receptor A2a were above 1000 nM and 34 nM (antagonist), respectively.

Take `Nc1nc(N2CCN3C[C@@H](CNCc4ccncc4)CC[C@H]3C2)nc2nc(-c3ccco3)nn12` (racemic): the Ki at Adenosine receptor A1 was above 500 nM; at Adenosine receptor A2a, 36 nM (antagonist).

Take `Nc1nc(NC[C@@H]2CC[C@@H]3CN(c4cc(F)cc(F)c4)CCN3C2)nc2nc(-c3ccco3)nn12` (racemic): the inhibition constant (Ki) is above 500 nM at Adenosine receptor A1 and 49 nM (antagonist) on Adenosine receptor A2a.

In the case of `Nc1nc(N2CCN3C[C@@H](COc4ncnc5[nH]ncc45)CC[C@@H]3C2)nc2nc(-c3ccco3)nn12` (racemic), the Ki is above 500 nM on Adenosine receptor A1 and 5 nM (antagonist) at Adenosine receptor A2a.

Turning to `Nc1nc(N2CCN3C[C@@H](Cn4ccnc4)CC[C@H]3C2)nc2nc(-c3ccco3)nn12` (racemic), the inhibitory constant (Ki) on Adenosine receptor A1 is 1200 nM; on Adenosine receptor A2a, 0.3 nM (antagonist).

With `Nc1nc(N2CCN3C[C@@H](COc4ccncc4)CC[C@H]3C2)nc2nc(-c3ccco3)nn12` (racemic), the Ki was above 1000 nM at Adenosine receptor A1 and 25 nM (antagonist) on Adenosine receptor A2a.

For the compound `Nc1nc(N2CCN3C[C@H](COc4ccccn4)CC[C@H]3C2)nc2nc(-c3ccco3)nn12` (racemic), the Ki at Adenosine receptor A1 is above 500 nM; at Adenosine receptor A2a, 41 nM (antagonist).

`Nc1nc(N2CCN3C[C@@H](COc4ccccn4)CC[C@H]3C2)nc2nc(-c3ccco3)nn12` (racemic): the Ki on Adenosine receptor A1 is above 1000 nM; on Adenosine receptor A2a, 20 nM (antagonist).
